# Read-outs that look alike come from different tables or passages of the source.
# Key:
# androgen receptor (hAR) [1] = biological target: T1, androgen receptor (hAR) (Homo sapiens (Human), UniProt P10275); experiment: biochemical; format: binding
# Experimental: In order to examine binding ability of the agonists of the present invention to androgen receptors, the following in-vitro experiment was performed. African green monkey kidney fibroblast-like cell line, COS-7 (ATCC, #CRL-1651) was seeded in a 48-well plate at a density of 2.5×10^4 cells/well, and cultured for 24 hours. Then, a plasmid hAR-mixed medium was added thereto. […] Thereafter, the cells were lysed and the amount of [3H]MIB bound to the intracellular androgen receptors was measured using a radiation dosimeter.
# androgen receptor (hAR) [2] = biological target: T1, androgen receptor (hAR); experiment: Test of transcriptional activity (hAR / ARE-Luc dual-luciferase assay in CHO cells); format: cell-based; settings: EC50 [nM] (mean ± SE), CHO cells with hAR and ARE-Luc, 24 hours; 10 nM DHT = 100%
# How it was run: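 CHO cells cultured 24 h, then transfected with hAR and ARE-Luc plasmids. Transfected cells treated with 0.1˜10,000 nM compound for 24 h; transcriptional activity read by dual-luciferase reporter.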
# castrated male rats = experiment: Efficacy test in castrated male rat (Hershberger assay); format: in vivo, SD (Sprague-Dawley) rat; settings: castrated male SD rats, oral once a day for 14 days
# Experimental: SD (Sprague-Dawley) male rats (7-week-old) were castrated under ketamine/xylazine anesthesia, and 5 rats were randomly assigned to one group. From the next day, the agonists were dissolved in a vehicle solution and orally administered at a dose of 5 ml per kg once a day for 14 days. As the vehicle, DMSO, Co-solvent, and DW were prepared at a ratio of 4:80:16 (v/v/v), and Co-solvent was prepared by mixing PEG400, Ethanol, and Tween 80 at a ratio of 85:10:5 (v/v/v). 24 hours after last administration of the drug, their body weight was measured and killed. Thereafter, levator ani muscle, ventral prostate, and seminal vesicles were removed and weighed (Hershberger assay). The following Table 6 represents the result of the efficacy test in castrated male rats.
# [3] = 1 nM [3H]MIB, hAR-transfected COS-7 cells, 2 hours, read-out: IC50 [nM] (mean ± SE)
# T1 sequence (P10275 whole entry): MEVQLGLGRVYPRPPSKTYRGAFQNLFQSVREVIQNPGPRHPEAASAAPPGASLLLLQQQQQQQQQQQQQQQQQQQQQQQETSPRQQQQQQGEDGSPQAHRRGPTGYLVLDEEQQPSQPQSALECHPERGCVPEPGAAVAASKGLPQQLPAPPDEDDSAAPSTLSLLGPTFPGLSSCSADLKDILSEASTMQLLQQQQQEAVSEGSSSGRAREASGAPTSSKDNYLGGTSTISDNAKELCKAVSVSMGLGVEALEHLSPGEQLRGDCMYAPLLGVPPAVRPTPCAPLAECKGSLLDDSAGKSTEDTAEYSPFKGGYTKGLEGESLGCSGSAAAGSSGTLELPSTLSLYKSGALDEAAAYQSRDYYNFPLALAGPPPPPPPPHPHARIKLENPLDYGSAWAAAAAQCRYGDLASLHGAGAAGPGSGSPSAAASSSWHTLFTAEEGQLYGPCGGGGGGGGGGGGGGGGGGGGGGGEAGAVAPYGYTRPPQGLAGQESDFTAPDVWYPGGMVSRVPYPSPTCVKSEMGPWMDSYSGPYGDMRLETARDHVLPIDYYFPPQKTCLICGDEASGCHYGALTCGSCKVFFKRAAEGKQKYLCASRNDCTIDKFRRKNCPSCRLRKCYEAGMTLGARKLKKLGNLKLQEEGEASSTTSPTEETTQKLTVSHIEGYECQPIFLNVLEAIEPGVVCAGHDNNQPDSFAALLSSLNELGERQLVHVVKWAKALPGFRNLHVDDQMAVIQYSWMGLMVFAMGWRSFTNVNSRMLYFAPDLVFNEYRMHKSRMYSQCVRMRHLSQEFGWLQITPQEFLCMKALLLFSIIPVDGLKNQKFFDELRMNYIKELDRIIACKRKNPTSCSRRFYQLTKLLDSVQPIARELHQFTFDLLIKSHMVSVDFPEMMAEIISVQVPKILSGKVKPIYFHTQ
smiles,measurement,setting,value
"N#Cc1ccc(N2C[C@@H](COc3ccc(C(=O)O)cc3)O[C@@H]2C(F)(F)F)cc1C(F)(F)F [Example 9, 4-(((2R,5S)-3-(4-cyano-3-(trifluoromethyl)phenyl)-2-(trifluoromethyl)oxazolidin-5-yl)methoxy)benzoic acid]",IC50,androgen receptor (hAR) [1],367 nM
"N#Cc1ccc(OC[C@@H]2CN(c3ccc(C#N)c(C(F)(F)F)c3)[C@H](C(F)(F)F)O2)cc1 [Example 6, 4-((2S,5S)-5-((4-cyanophenoxy)methyl)-2-(trifluoromethyl)oxazolidin-3-yl)-2-(trifluoromethyl)benzonitrile]",EC50,androgen receptor (hAR) [2],4.1 nM
same,IC50,androgen receptor (hAR) [1]; [3],11 nM
"COC(=O)c1ccc(OC[C@@H]2CN(c3ccc(C#N)c(C(F)(F)F)c3)[C@@H](C(F)(F)F)O2)cc1 [Example 7, methyl 4-(((2R,5S)-3-(4-cyano-3-(trifluoromethyl)phenyl)-2-(trifluoromethyl)oxazolidin-5-yl)methoxy)benzoate]",EC50,androgen receptor (hAR) [2],13.1 nM
same,IC50,androgen receptor (hAR) [1]; [3],15.7 nM
"N#Cc1ccc(N2C[C@@H](COc3ccc([N+](=O)[O-])cc3)O[C@H]2C(F)(F)F)cc1C(F)(F)F [Example 35, 4-((2S,5S)-5-((4-nitrophenoxy)methyl)-2-(trifluoromethyl)oxazolidin-3-yl)-2-(trifluoromethyl)benzonitrile]",IC50,androgen receptor (hAR) [1]; [3],185 nM
"N#Cc1ccc(N2C[C@@H](COc3ccc([N+](=O)[O-])cc3)O[C@@H]2C(F)(F)F)cc1C(F)(F)F [Example 8, 4-((2R,5S)-5-((4-nitrophenoxy)methyl)-2-(trifluoromethyl)oxazolidin-3-yl)-2-(trifluoromethyl)benzonitrile]",EC50,androgen receptor (hAR) [2],20 nM
same,IC50,androgen receptor (hAR) [1]; [3],13.7 nM
"CC(=O)Nc1ccc(OC[C@@H]2CN(c3ccc(C#N)c(C(F)(F)F)c3)[C@H](C(F)(F)F)O2)cc1 [Example 30, N-(4-(((2S,5S)-3-(4-cyano-3-(trifluoromethyl)phenyl)-2-(trifluoromethyl)oxazolidin-5-yl)methoxy)phenyl)acetamide]",IC50,androgen receptor (hAR) [1]; [3],142 nM
"N#Cc1ccc(N2C[C@@H](COc3ccc([N+](=O)[O-])cc3F)O[C@@H]2C(F)(F)F)cc1C(F)(F)F [Example 33, 4-((2R,5S)-5-((2-fluoro-4-nitrophenoxy)methyl)-2-(trifluoromethyl)oxazolidin-3-yl)-2-(trifluoromethyl)benzonitrile]",EC50,androgen receptor (hAR) [2],10.7 nM
same,IC50,androgen receptor (hAR) [1]; [3],10.4 nM
"N#Cc1ccc(N2C[C@H]([C@H](O)C(F)(F)F)O[C@H]2C(F)(F)F)cc1C(F)(F)F [Example 22, 4-((2S,5R)-5-((S)-2,2,2-trifluoro-1-hydroxyethyl)-2-(trifluoromethyl)oxazolidin-3-yl)-2-(trifluoromethyl)benzonitrile]",IC50,androgen receptor (hAR) [1]; [3],1870 nM
"N#Cc1ccc(N2C[C@@H]([C@H](O)C(F)(F)F)O[C@@H]2C(F)(F)F)cc1C(F)(F)F [Example 24, 4-((2R,5S)-5-((S)-2,2,2-trifluoro-1-hydroxyethyl)-2-(trifluoromethyl)oxazolidin-3-yl)-2-(trifluoromethyl)benzonitrile]",IC50,androgen receptor (hAR) [1]; [3],141 nM
"COc1ccc(OC[C@@H]2CN(c3ccc(C#N)c(C(F)(F)F)c3)[C@@H](C(F)(F)F)O2)cc1 [Example 27, 4-((2R,5S)-5-((4-methoxyphenoxy)methyl)-2-(trifluoromethyl)oxazolidin-3-yl)-2-(trifluoromethyl)benzonitrile]",IC50,androgen receptor (hAR) [1]; [3],22.4 nM
"N#Cc1ccc(N2C[C@H]([C@@H](O)C(F)(F)F)O[C@H]2C(F)(F)F)cc1C(F)(F)F [Example 21, 4-((2S,5R)-5-((R)-2,2,2-trifluoro-1-hydroxyethyl)-2-(trifluoromethyl)oxazolidin-3-yl)-2-(trifluoromethyl)benzonitrile]",IC50,androgen receptor (hAR) [1]; [3],1060 nM
"N#Cc1ccc(COC[C@H]2CN(c3ccc(C#N)c(C(F)(F)F)c3)[C@H](C(F)(F)F)O2)cc1 [Example 4, 4-((2S,5R)-5-(((4-cyanobenzyl)oxy)methyl)-2-(trifluoromethyl)oxazolidin-3-yl)-2-(trifluoromethyl)benzonitrile]",IC50,androgen receptor (hAR) [1]; [3],657 nM
"N#Cc1ccc(N2C[C@@H]([C@@H](O)C(F)(F)F)O[C@@H]2C(F)(F)F)cc1C(F)(F)F [Example 23, 4-((2R,5S)-5-((R)-2,2,2-trifluoro-1-hydroxyethyl)-2-(trifluoromethyl)oxazolidin-3-yl)-2-(trifluoromethyl)benzonitrile]",IC50,androgen receptor (hAR) [1]; [3],44.3 nM
"CNC(=O)c1ccc(OC[C@@H]2CN(c3ccc(C#N)c(C(F)(F)F)c3)[C@@H](C(F)(F)F)O2)cc1 [Example 32, 4-(((2R,5S)-3-(4-cyano-3-(trifluoromethyl)phenyl)-2-(trifluoromethyl)oxazolidin-5-yl)methoxy)-N-methylbenzamide]",IC50,androgen receptor (hAR) [1]; [3],32.7 nM
"N#Cc1ccc(OC[C@H]2CN(c3ccc(C#N)c(C(F)(F)F)c3)[C@@H](C(F)(F)F)O2)cc1 [Example 5, 4-((2R,5R)-5-((4-cyanophenoxy)methyl)-2-(trifluoromethyl)oxazolidin-3-yl)-2-(trifluoromethyl)benzonitrile]",IC50,androgen receptor (hAR) [1],91.6 nM
"N#Cc1ccc(OC[C@H]2CN(c3ccc(C#N)c(C(F)(F)F)c3)[C@H](C(F)(F)F)O2)cc1 [Example 20, 4-((2S,5R)-5-((4-cyanophenoxy)methyl)-2-(trifluoromethyl)oxazolidin-3-yl)-2-(trifluoromethyl)benzonitrile]",IC50,androgen receptor (hAR) [1]; [3],1080 nM
"N#Cc1ccc(N2C[C@@H](COc3ccc([N+](=O)[O-])cc3Cl)O[C@@H]2C(F)(F)F)cc1C(F)(F)F [Example 12, 4-((2R,5S)-5-((2-chloro-4-nitrophenoxy)methyl)-2-(trifluoromethyl)oxazolidin-3-yl)-2-(trifluoromethyl)benzonitrile]",IC50,androgen receptor (hAR) [1]; [3],145 nM
"COc1cccc(OC[C@@H]2CN(c3ccc(C#N)c(C(F)(F)F)c3)[C@@H](C(F)(F)F)O2)c1 [Example 28, 4-((2R,5S)-5-((3-methoxyphenoxy)methyl)-2-(trifluoromethyl)oxazolidin-3-yl)-2-(trifluoromethyl)benzonitrile]",IC50,androgen receptor (hAR) [1]; [3],77.2 nM
"COC(=O)Nc1ccc(OC[C@@H]2CN(c3ccc(C#N)c(C(F)(F)F)c3)[C@@H](C(F)(F)F)O2)cc1 [Example 36, methyl(4-(((2R,5S)-3-(4-cyano-3-(trifluoromethyl)phenyl)-2-(trifluoromethyl)oxazolidin-5-yl)methoxy)phenyl)carbamate]",levator ani muscle weight % relative to intact control group,castrated male rats; 0.1 mg/kg,18.6 ± 2.2%
same,seminal vesicles weight % relative to intact control group,castrated male rats; 0.1 mg/kg,2.4 ± 0.6%
same,ventral prostate weight % relative to intact control group,castrated male rats; 0.1 mg/kg,1.0 ± 0.1%
same,levator ani muscle weight % relative to intact control group,castrated male rats; 0.3 mg/kg,18.8 ± 2.7%
same,seminal vesicles weight % relative to intact control group,castrated male rats; 0.3 mg/kg,−0.2 ± 0.0%
same,ventral prostate weight % relative to intact control group,castrated male rats; 0.3 mg/kg,0.6 ± 0.1%
same,levator ani muscle weight % relative to intact control group,castrated male rats; 1 mg/kg,53.9 ± 6.5%
same,seminal vesicles weight % relative to intact control group,castrated male rats; 1 mg/kg,4.7 ± 1.0%
same,ventral prostate weight % relative to intact control group,castrated male rats; 1 mg/kg,8.0 ± 1.6%
same,levator ani muscle weight % relative to intact control group,castrated male rats; 3 mg/kg,47.0 ± 2.6%
same,seminal vesicles weight % relative to intact control group,castrated male rats; 3 mg/kg,3.0 ± 0.7%
same,ventral prostate weight % relative to intact control group,castrated male rats; 3 mg/kg,4.7 ± 1.9%
same,levator ani muscle weight % relative to intact control group,castrated male rats; 10 mg/kg,55.2 ± 10.3%
same,seminal vesicles weight % relative to intact control group,castrated male rats; 10 mg/kg,4.7 ± 0.7%
same,ventral prostate weight % relative to intact control group,castrated male rats; 10 mg/kg,5.8 ± 0.8%
same,levator ani muscle weight % relative to intact control group,castrated male rats; 30 mg/kg,58.2 ± 5.8%
same,seminal vesicles weight % relative to intact control group,castrated male rats; 30 mg/kg,10.4 ± 3.1%
same,ventral prostate weight % relative to intact control group,castrated male rats; 30 mg/kg,10.8 ± 3.1%
same,levator ani muscle weight % relative to intact control group,castrated male rats; 100 mg/kg,65.3 ± 7.9%
same,seminal vesicles weight % relative to intact control group,castrated male rats; 100 mg/kg,16.1 ± 4.0%
same,ventral prostate weight % relative to intact control group,castrated male rats; 100 mg/kg,12.6 ± 3.1%
same,EC50,androgen receptor (hAR) [2],8.1 ± 1.9 nM
